Reference: US12227769B2 (priority 2018, dated 2025)

Experiments:
[1] = tested on: Rous sarcoma virus, HIV-1, RSV, parainfluenza virus type 3, VSV, measles virus, and reovirus; settings: shown previously [52, 53, 59]; cited from earlier work
[2] = tested on: rgRSV or rgRSV-G1857A-G1853A; format: cell-based, RSV A2 strain; settings: 15 μg/ml Cc3Ado; rgRSV and rgRSV-G1853A-G1857A-infected cells; day 3
[3] = tested on: rgRSV or rgRSV-G1857A-G1853A; format: cell-based, RSV A2 strain; settings: 50 μg/ml Cc3Ado, day 3
RIG-I = format: cell-based, human
[4] = biological target: T1, Recombinant human RIG-I protein (Homo sapiens, UniProt O95786); test: Limited trypsin digestion of RIG-I:RNA complexes; format: biochemical; settings: 2 h trypsin digestion, 2 mM AMP-PNP
T1 construct: trypsin treatment of the full-length RIG-I protein (approximately 110 kDa) yielded a 55-kDa RIG-I fragment; Flag; made in house; host or cells: HEK-293T
T1 sequence (O95786 1-925): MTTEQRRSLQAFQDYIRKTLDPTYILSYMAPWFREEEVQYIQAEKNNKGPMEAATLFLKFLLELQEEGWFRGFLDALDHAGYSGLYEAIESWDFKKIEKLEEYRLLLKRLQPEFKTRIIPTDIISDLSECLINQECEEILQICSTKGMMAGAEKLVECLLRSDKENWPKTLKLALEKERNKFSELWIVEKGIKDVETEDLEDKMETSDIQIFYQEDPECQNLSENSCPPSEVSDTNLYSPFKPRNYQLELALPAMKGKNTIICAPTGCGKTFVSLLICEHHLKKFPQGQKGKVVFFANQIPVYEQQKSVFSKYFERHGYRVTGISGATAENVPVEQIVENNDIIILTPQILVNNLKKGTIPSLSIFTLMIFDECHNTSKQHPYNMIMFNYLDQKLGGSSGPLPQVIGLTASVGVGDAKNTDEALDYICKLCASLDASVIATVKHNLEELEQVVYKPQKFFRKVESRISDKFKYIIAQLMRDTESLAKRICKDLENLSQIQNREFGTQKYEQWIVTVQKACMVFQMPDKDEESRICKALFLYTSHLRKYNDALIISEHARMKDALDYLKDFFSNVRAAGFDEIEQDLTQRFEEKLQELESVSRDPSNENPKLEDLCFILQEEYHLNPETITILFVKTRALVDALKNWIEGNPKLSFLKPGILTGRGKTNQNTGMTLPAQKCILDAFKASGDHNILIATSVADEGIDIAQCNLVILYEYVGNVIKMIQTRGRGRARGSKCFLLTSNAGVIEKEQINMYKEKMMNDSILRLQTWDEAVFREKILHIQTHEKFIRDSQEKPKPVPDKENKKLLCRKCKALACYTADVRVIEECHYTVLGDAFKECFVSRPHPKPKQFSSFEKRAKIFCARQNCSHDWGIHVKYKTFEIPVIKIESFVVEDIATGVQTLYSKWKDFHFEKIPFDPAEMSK

Compound: Nc1nccc2c1ncn2[C@@H]1O[C@H](CO)[C@@H](O)[C@H]1O [3-deazaadenosine]
- inhibition of virus replication [1]: capable of inhibiting the replication of diverse viruses

Compound: Carbocyclic 3-deazaadenosine [Cc3Ado]
- effect on RSV spread (GFP) in HEp-2 cells [2]: inhibited rgRSV spread over 3 days
- effect on GFP signal in rgRSV-G1853A-G1857A-infected HAE cells [3]: the GFP signal was further reduced

Compound: Poly(I.C)
- expression of RIG-I in RNA-transfected cells (RIG-I): activated RIG-I expression in a dose-dependent manner
- trypsin-resistant 80-kDa RIG-I fragment [4]: yielded an 80-kDa fragment
